Drawing on patent US20120004244A1, “Bis Aromatic Compounds for Use as LTC4 Synthase Inhibitors” (BIOLIPOX AB, priority 2009, published 2012), this text covers IC50 and inhibition for 34 compounds.

As a reminder, the IC50 is the concentration needed to halve the response being measured. A word on the inhibition: it is the drop in the measured response relative to a control, in per cent.

The target in this assay is T1, Recombinant human LTC4 synthase (Homo sapiens, UniProt Q16873).
T1 construct: made in house; host or cells: Pichia pastoris ('Piccia pastoralis' [sic])
T1 sequence (Q16873 1-150): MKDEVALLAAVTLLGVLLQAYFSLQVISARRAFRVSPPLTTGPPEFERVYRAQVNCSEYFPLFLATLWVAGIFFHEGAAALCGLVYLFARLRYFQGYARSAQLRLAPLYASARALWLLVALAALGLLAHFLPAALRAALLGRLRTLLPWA
The assay can be described thus: LTC4 synthase in vitro assay (LTA4 to LTC4, HTRF detection). The format is biochemical. The note with it: for inhibition at 10 µM: 5 min, total concentration of title compound in the assay 10 μM. Put shortly: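 Purified recombinant human LTC4 synthase expressed in Pichia (0.5 μg/mL total protein) was preincubated with inhibitor at 10 μM final for 10 min at room temperature in PBS pH 7.4 with 5 mM GSH. LTA4 was then added at 2.5 μM final, and after 5 min at room temperature LTC4 was detected by HTRF.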
A general note: Time-resolved FRET reads energy transfer from a long-lived donor to a nearby acceptor.

With `O=C(c1ccc(Oc2ccccc2)c(C(=O)O)c1)c1ccc(-c2cccc(Cl)c2)cn1` [7:1, 5-[5-(3-Chlorophenyl)picolinoyl]-2-phenoxybenzoic acid], the 50% inhibitory concentration (IC50) worked out at 1110 nM.
`CN(c1ccc(Cl)cc1)c1ccc(C(=O)c2ccc(Nc3cccc(S(C)(=O)=O)c3)c(C(=O)O)c2)nc1` [2:18, 5-{5-[(4-Chlorophenyl)(methyl)amino]picolinoyl}-2-(3-methylsulfonylphenyl-amino)benzoic acid]: the 50% inhibitory concentration (IC50) was 188 nM.
Still for that read-out and setting: the value for `O=C(c1ccc(Oc2ccc(Cl)c(Cl)c2)c(C(=O)O)c1)c1ccc(N(CC2CC2)c2ccc(Cl)cc2)cn1` [1:26, 5-{5-[(4-Chlorophenyl)(cyclopropylmethyl)amino]picolinoyl}-2-(3,4-dichlorophenoxy)benzoic acid] was 72 nM.
Still for that read-out and setting: the value for `COc1cc(OC)cc(C(=O)Nc2ccc(C(=O)c3ccc(N(C)c4ccc(Cl)cc4)cn3)cc2C(=O)O)c1` [3:29, 5-{5-[(4-Chlorophenyl)(methyl)amino]picolinoyl}-2-(3,5-dimethoxybenzamido)-benzoic acid] was 12 nM; that for `CN(c1ccc(Cl)cc1)c1ccc(C(=O)c2ccc(NC3CCS(=O)(=O)CC3)c(C(=O)O)c2)nc1` [2:20, 5-{5-[(4-Chlorophenyl)(methyl)amino]picolinoyl}-2-(1,1-dioxotetrahydrothiopyran-4-ylamino)benzoic acid] was 658 nM.
On the same count and under the same terms, the value for `CN(c1ccc(Cl)cc1)c1ccc(C(=O)c2ccc(NCc3cccnc3)c(C(=O)O)c2)nc1` [2:9, 5-{5-[(4-Chlorophenyl)(methyl)amino]picolinoyl}-2-[(3-pyridylmethyl)amino]benzoic acid] was 466 nM.
Consider `O=C(O)c1cc(C(=NO)c2ccc(N(CC3CC3)c3ccc(Cl)cc3)cn2)ccc1Oc1ccccc1` (mixture of isomers) [Example 14, 5-({5-[(4-Chlorophenyl)(cyclopropylmethyl)amino]-2-pyridyl}(hydroxyimino)-methyl)-2-phenoxybenzoic acid], for which the IC50 was 1110 nM.
The same measure, in the same setting: the value for `CON=C(c1ccc(Oc2ccccc2)c(C(=O)O)c1)c1ccc(N(CC2CC2)c2ccc(Cl)cc2)cn1` (mixture of isomers) [Example 13, 5-({5-[(4-Chlorophenyl)(cyclopropylmethyl)amino]-2-pyridyl}(methoxyimino)-methyl)-2-phenoxybenzoic acid] was 242 nM; that for `CN(c1ccc(Cl)cc1)c1ccc(C(=O)c2ccc(-n3cccc3-c3cccc(Cl)c3)c(C(=O)O)c2)nc1` [20:1, 5-{5-[(4-Chlorophenyl)(methyl)amino]picolinoyl}-2-{2-(3-chlorophenyl)pyrrol-1-yl}benzoic acid] was 163 nM.
Same read-out and setting: the value for `COc1ccc(C(=O)Nc2ccc(C(=O)c3ccc(N(C)c4ccc(Cl)cc4)cn3)cc2C(=O)O)c(OC)c1` [3:13, 5-{5-[(4-Chlorophenyl)(methyl)amino]picolinoyl}-2-(2,4-dimethoxy-benzamido)benzoic acid] was 23 nM; that for `COc1ccc(OC)c(C(=O)Nc2ccc(C(=O)c3ccc(N(C)c4ccc(Cl)cc4)cn3)cc2C(=O)O)c1` [3:21, 5-{5-[(4-Chlorophenyl)(methyl)amino]picolinoyl}-2-(2,5-dimethoxybenzamido)-benzoic acid] was 25 nM.
`CN(c1ccc(Cl)cc1)c1ccc(C(=O)c2ccc(Oc3ccc(F)c(F)c3)c(C(=O)O)n2)cc1` [9:2]: the half-maximal inhibitory concentration (IC50) came to 834 nM and the inhibition at 10 µM was determined as 94%.
As to `CN(c1ccc(Cl)cc1)c1ccc(C(=O)c2ccc(C(=O)c3cccc(C(F)(F)F)c3)c(C(=O)O)c2)nc1` [5:27], the concentration for half-maximal inhibition (IC50) was 54 nM.
On the same count and under the same terms, the value for `CN(c1ccc(Cl)cc1)c1ccc(C(=O)c2ccc(N3CCC(C(F)(F)F)CC3)c(C(=O)O)c2)nc1` [2:22, 5-{5-[(4-Chlorophenyl)(methyl)amino]picolinoyl}-2-(4-trifluoromethyl-1-piperidinyl)benzoic acid] was 2000 nM.
For the compound `CN(c1ccc(Cl)cc1)c1ccc(C(=O)c2ccc(Oc3ccc(F)c(F)c3)c(C(=O)O)c2)nc1` [1:2, 5-{5-[(4-Chlorophenyl)(methyl)amino]picolinoyl}-2-(3,4-difluorophenoxy)benzoic acid], the IC50 stood at 104 nM and the inhibition at 10 µM is 98%.
With `COc1ccc(C(=O)c2ccc(C(=O)c3ccc(N(C)c4ccc(Cl)cc4)cn3)cc2C(=O)O)c(OC)c1` [5:10, 5-{5-[(4-Chlorophenyl)(methyl)amino]picolinoyl}-2-(2,4-dimethoxybenzoyl)-benzoic acid], the IC50 worked out at 68 nM.
Same read-out and setting: the value for `CN(c1ccc(Cl)cc1)c1ccc(C(=O)c2ccc(NC(=O)c3ccccc3OC(F)(F)F)c(C(=O)O)c2)nc1` [3:12, 5-{5-[(4-Chlorophenyl)(methyl)amino]picolinoyl}-2-(2-trifluoromethoxy-benzamido)benzoic acid] was 104 nM; that for `CN(c1ccc(Cl)cc1)c1ccc(C(=O)c2ccc(NC3CCSCC3)c(C(=O)O)c2)nc1` [2:19, 5-{5-[(4-Chlorophenyl)(methyl)amino]picolinoyl}-2-(4-tetrahydrothiopyranylamino)benzoic acid] was 149 nM.
Still for that read-out and setting: the value for `CN(c1ccc(Cl)cc1)c1ccc(C(=O)c2ccc(-c3ccccc3-c3ccccc3)c(C(=O)O)c2)nc1` [21:8, 4-{5-[(4-Chlorophenyl)(methyl)amino]picolinoyl}[1,1′;2′,1″]terphenyl-2-carboxylic acid] was 244 nM; that for `COc1cc(C(=O)Nc2ccc(C(=O)c3ccc(N(C)c4ccc(Cl)cc4)cn3)cc2C(=O)O)cc(OC)c1OC` [3:16, 5-{5-[(4-Chlorophenyl)(methyl)amino]picolinoyl}-2-(3,4,5-trimethoxybenz-amido)benzoic acid] was 157 nM; that for `CN(c1ccc(Cl)cc1)c1ccc(C(=O)c2ccc(C(=O)C3CCCCC3)c(C(=O)O)c2)nc1` [5:18, 5-{5-[(4-Chlorophenyl)(methyl)amino]picolinoyl}-2-cyclohexylcarbonylbenzoic acid] was 246 nM.
Same read-out and setting: the value for `CN(c1ccc(Cl)cc1)c1ccc(C(=O)c2ccc(C(=O)c3ccc4c(c3)OCCO4)c(C(=O)O)c2)nc1` [5:26] was 27 nM.
As for `O=C(c1ccc(-n2nncc2-c2ccccc2)c(C(=O)O)c1)c1ccc(N(CC2CC2)c2ccc(Cl)cc2)cn1` [17:3, 5-{5-[(4-Chlorophenyl)(cyclopropylmethyl)amino]picolinoyl}-2-(5-phenyl-1,2,3-triazol-1-yl)benzoic acid], the IC50 amounted to 45 nM and the inhibition at 10 µM was 100%.
Consider `CS(=O)(=O)c1ccc(Oc2ccc(C(=O)c3ccc(N(CC4CC4)c4ccc(Cl)cc4)cn3)cc2C(=O)O)cc1` [1:37, 5-{5-[(4-Chlorophenyl)(cyclopropylmethyl)amino]picolinoyl}-2-(4-methylsulfonylphenoxy)benzoic acid], for which the IC50 came out at 300 nM.
Regarding `N#CCCCN(c1ccc(Cl)cc1)c1ccc(C(=O)c2ccc(Oc3ccccc3)c(C(=O)O)c2)nc1` [1:10, 5-{5-[(4-Chlorophenyl)(3-cyanopropyl)amino]picolinoyl}-2-phenoxybenzoic acid], the 50% inhibitory concentration (IC50) stood at 433 nM and the inhibition at 10 µM worked out at 98%.
As for `COc1cccc(F)c1C(=O)Nc1ccc(C(=O)c2ccc(N(C)c3ccc(Cl)cc3)cn2)cc1C(=O)O` [3:30, 5-{5-[(4-Chlorophenyl)(methyl)amino]picolinoyl}-2-(2-fluoro-6-methoxybenz-amido)benzoic acid], the IC50 came out at 26 nM.
`CN(c1ccc(Cl)cc1)c1ccc(C(=O)c2ccc(C(=O)c3ccc(F)cc3)c(C(=O)O)c2)nc1` [5:15, 5-{5-[(4-Chlorophenyl)(methyl)amino]picolinoyl}-2-(4-fluorobenzoyl)benzoic acid]: the IC50 worked out at 126 nM.
Take `CCOCCN(c1ccc(Cl)cc1)c1ccc(C(=O)c2ccc(Oc3ccccc3)c(C(=O)O)c2)nc1` [1:7, 5-{5-[(4-Chlorophenyl)(2-ethoxyethyl)amino]picolinoyl}-2-phenoxybenzoic acid]: the IC50 was found to be 171 nM and the inhibition at 10 µM amounted to 99%.
Regarding `COc1cc(F)c(C(=O)Nc2ccc(C(=O)c3ccc(N(C)c4ccc(Cl)cc4)cn3)cc2C(=O)O)c(F)c1` [3:35, 5-{5-[(4-Chlorophenyl)(methyl)amino]picolinoyl}-2-(2,6-difluoro-4-methoxy-benzamido)benzoic acid], the concentration for half-maximal inhibition (IC50) was determined as 73 nM.
Take `O=C(c1ccc(N(CC2CC2)c2ccc(Cl)cc2)cc1)c1cc(C(=O)O)c(Oc2ccccc2)cn1` [8:1, 2-{4-[(4-Chlorophenyl)(cyclopropylmethyl)amino]benzoyl}-5-phenoxyisonicotinic acid]: the half-maximal inhibitory concentration (IC50) turned out to be 82 nM and the inhibition at 10 µM was 99%.
Consider `Cc1cc(Cl)ccc1N(C)c1ccc(C(=O)c2ccc(C(=O)c3ccccc3)c(C(=O)O)c2)nc1` [5:22, 2-Benzoyl-5-{5-[(4-chloro-2-methylphenyl)(methyl)amino]picolinoyl}benzoic acid], for which the half-inhibitory concentration (IC50) amounted to 442 nM.
In the case of `CN(c1ccc(C(F)(F)F)cc1)c1ccc(C(=O)c2ccc(Oc3ccccc3)c(C(=O)O)c2)nc1` [1:15, 5-{5-[(Methyl)(4-trifluoromethylphenyl)amino]picolinoyl}-2-phenoxybenzoic acid], the IC50 came to 465 nM and the inhibition at 10 µM was 99%.
In the case of `CN(c1ccc(Cl)cc1)c1ccc(C(=O)c2ccc(NC(=O)c3ccc4c(c3)OCCO4)c(C(=O)O)c2)nc1` [3:19, 5-{5-[(4-Chlorophenyl)(methyl)amino]picolinoyl}-2-(3,4-ethylenedioxy-benzamido)benzoic acid], the IC50 came out at 17 nM.
On to `CN(c1ccc(Cl)cc1)c1ccc(C(=O)c2ccc(NC3CCCCC3)c(C(=O)O)c2)nc1` [2:4, 5-{5-[(4-Chlorophenyl)(methyl)amino]picolinoyl}cyclohexylaminobenzoic acid], for which the half-maximal inhibitory concentration (IC50) was 140 nM.
